Measurements from patent US20190091173A1, “METHOD OF […] BETWEEN […]” (ZOGENIX INTERNATIONAL LIMITED, priority 2017, published 2019).

Assays:
[1] = tested on: convulsive seizures in subjects with Dravet syndrome; test: Study 1 (ZX008-1501/ZX008-1502), Phase 3, randomized, double-blind, placebo-controlled; format: in vivo, human; settings: 0.2 mg/kg/day, end of T+M Period, SD 140.46, p=0.735
Method: The first 119 subjects to be randomized in both identical studies combined were analyzed and reported as Study 1 (FIG. 1), covered by a Statistical Analysis Plan (SAP).
Primary and key secondary endpoints in the Study 1 SAP were pre-determined. All patients were treated twice per day over a period of 14 weeks using an oral syringe to administer the formulation. The treatment period included a two-week titration period and a 12-week maintenance period.
The initial results of Study 1 are outlined below. The randomized, double blind, placebo controlled, Phase 3 study enrolled 119 patients across sites in the United States, Canada, Europe and Australia. The median age of patients was 8 years, the mean age of patients was 9 years (range, 2-18 years) (FIG. 2).
Patients were titrated to their target dose over two weeks, and then remained at that fixed dose for 12 weeks. The mean baseline convulsive seizure frequency across the study groups was approximately 40 seizures per month. 110 (92%) patients completed the study (85% 0.8 mg/kg/day; 100% 0.2 mg/kg/day; 93% placebo). […]
The mean number of convulsive seizure free days, defined as a day for which diary data are available and no convulsive seizures have been reported, was determined for each treatment group during the Baseline and T+M Periods. […]

[2] = tested on: seizures in patients with Dravet syndrome; settings: long-term fenfluramine treatment; cited from earlier work

In the case of CCNC(C)Cc1cccc(C(F)(F)F)c1 (stereo not shown) [Fenfluramine, 3-trifluoromethyl-N-ethylamphetamine], the “reduction from Baseline in non-convulsive seizures (all types) per 28 days” value [1] is given as 9.7%, the “effect on types of seizures” value [2] is given as “effectively reduced the incidence of all types of seizures” and the reduction in seizures [2] is given as 75%. For the same compound, the “test subjects in seizure-free condition” value [2] was 66.6%.
